Measurements taken from patent US4211772A, “Benzopyran glycoside acetals and ketals” (Laboratoires Sarget, priority 1977, dated 1980).
Where two headings read alike, the source gives them in different places.

Key:
capillary resistance = assay: Capillaroprotecting effects: capillary resistance; format: in vivo, male OFA EOPS rats
Experimental: (§1) Capillaroprotecting effects
The capillary resistance was determined by a variant of the method of Charlier et al, Arch. Inter. Physiol.

Aldose Reductase = molecular target: T1, Aldose Reductase (Bos taurus, UniProt P16116); assay: Inhibition of aldose reductase in vitro (enzyme from beef eye lenses, glyceraldehyde substrate); format: biochemical; conditions: in DMF solution, read-out: percentages of inhibition (aldose reductase)
T1 construct: The enzyme is extracted from beef eye lenses; from tissue; host or cells: beef eye lenses
Excerpt: Inhibition of Aldose Reductase In Vitro
The reoxidation of NADPH coupled to the enzymatic reaction was followed spectrophotometrically at 340 nm.

Solubilities in water = format: physicochemical; conditions: water; read-out: Solubilities in water
carragenin edema = assay: Anti-inflammatory activity: carragenin edema test; format: in vivo; conditions: for % inhibition of carragenin edema: borate buffer pH 7, 24 h; for inhibition in vivo at 35 mg/kg / inhibition in vivo at 40 mg/kg / inhibition in vivo at 75 mg/kg / inhibition in vivo at 100 mg/kg / inhibition in vivo at 200 mg/kg: Rattus norvegicus, ip
Outline: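 Male Wistar EOPS rats receive 0.1 ml of 5% carragenin suspension in physiological serum into the hind-paw metatarsal muscle, with test substance given i.p. in neutralized solution at the same time. Paw edema is measured by plethysmometry at several times after carragenin and reported as % inhibition against pH-matched physiological serum controls.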

capillary permeability = assay: Capillaroprotecting effects: capillary permeability; format: in vivo, conventional male Wistar rats
Experimental: as §1
The capillary permeability was determined by the method of Charlier et al, Arch. Inter. Physiol.

In the case of `C[C@@H]1O[C@@H](OC[C@H]2O[C@@H](Oc3c(-c4ccc(O)c(O)c4)oc4cc(O)cc(O)c4c3=O)[C@H](O)[C@@H](O)[C@@H]2O)[C@@H]2OC3(CCCCC3)O[C@@H]2[C@H]1O` [No. 6, 3-O-(2,3-O,O-cyclohexylidene-6-α-L-rhamnosyl-β-D-glucosyl)-quercitin], the “% of animals for which the effect is ≥ 25 u cm Hg/h” value (from here on “% of animals”) (capillary resistance; 50 mg/kg i.p.) is reported as 30%, the “capillary resistance, effect observed” value (capillary resistance; 50 mg/kg i.p.) is reported as 19.75 ± 10.2 u cm Hg/h and the “% of animals” value (capillary resistance; 100 mg/kg i.p.) is reported as 40%. For the same molecule, the “capillary resistance, effect observed” value (capillary resistance; 100 mg/kg i.p.) was 25.5 ± 13.2 u cm Hg/h, the “% of animals” value (capillary resistance; 200 mg/kg i.p.) was 90% and the “capillary resistance, effect observed” value (capillary resistance; 200 mg/kg i.p.) was 37.75 ± 12.9 u cm Hg/h. The inhibition at 100 µM (Aldose Reductase; 10^-4 mole/l) was 93%, the inhibition at 10 µM (Aldose Reductase; 10^-5 mole/l) was 66% and the inhibition at 1 µM (Aldose Reductase; 10^-6 mole/l) was 10%. The solubility (Solubilities in water) was under 100 µg/mL, the “% inhibition of carragenin edema” value (carragenin edema; 35 mg/kg i.p.) was 27% and the “% inhibition of carragenin edema” value (carragenin edema; 75 mg/kg i.p.) was 21%. For the same molecule, the “% inhibition of carragenin edema” value (carragenin edema; 100 mg/kg i.p.) was 37%, the “% inhibition of carragenin edema” value (carragenin edema; 200 mg/kg i.p.) was 0% and the inhibition in vivo at 35 mg/kg (carragenin edema; 1 h, pH 7, read-out: % inhibition of carragenin edema, 35 mg/kg i.p., borate buffer pH 7, 1 h) was 32%. The inhibition in vivo at 35 mg/kg (carragenin edema; 1 h, pH 7, read-out: % inhibition of carragenin edema, 35 mg/kg i.p., borate buffer pH 7, 1 h 1/2) was 23%, the inhibition in vivo at 40 mg/kg (carragenin edema; 1 h, pH 7, read-out: % inhibition of carragenin edema, 40 mg/kg i.p., borate buffer pH 7, 1 h) was 23% and the inhibition in vivo at 40 mg/kg (carragenin edema; 1 h, pH 7, read-out: % inhibition of carragenin edema, 40 mg/kg i.p., borate buffer pH 7, 1 h 1/2) was 11%. It also gave an inhibition in vivo at 75 mg/kg (carragenin edema; 1 h, pH 7, read-out: % inhibition of carragenin edema, 75 mg/kg i.p., borate buffer pH 7, 1 h) of 9%, an inhibition in vivo at 75 mg/kg (carragenin edema; 1 h, pH 7, read-out: % inhibition of carragenin edema, 75 mg/kg i.p., borate buffer pH 7, 1 h 1/2) of 3% and an inhibition in vivo at 100 mg/kg (carragenin edema; 1 h, pH 7, read-out: % inhibition of carragenin edema, 100 mg/kg i.p., borate buffer pH 7, 1 h) of 20%. The inhibition in vivo at 100 mg/kg (carragenin edema; 1 h, pH 7, read-out: % inhibition of carragenin edema, 100 mg/kg i.p., borate buffer pH 7, 1 h 1/2) was 9%, the inhibition in vivo at 200 mg/kg (carragenin edema; 1 h, pH 7, read-out: % inhibition of carragenin edema, 200 mg/kg i.p., borate buffer pH 7, 1 h) was 19% and the inhibition in vivo at 200 mg/kg (carragenin edema; 1 h, pH 7, read-out: % inhibition of carragenin edema, 200 mg/kg i.p., borate buffer pH 7, 1 h 1/2) was 2%. The inhibition in vivo at 35 mg/kg (carragenin edema; 2 h, pH 7, read-out: % inhibition of carragenin edema, 35 mg/kg i.p., borate buffer pH 7, 2 h) was 33%, the inhibition in vivo at 40 mg/kg (carragenin edema; 2 h, pH 7, read-out: % inhibition of carragenin edema, 40 mg/kg i.p., borate buffer pH 7, 2 h) was 7% and the inhibition in vivo at 75 mg/kg (carragenin edema; 2 h, pH 7, read-out: % inhibition of carragenin edema, 75 mg/kg i.p., borate buffer pH 7, 2 h) was 14%. It also gave an inhibition in vivo at 100 mg/kg (carragenin edema; 2 h, pH 7, read-out: % inhibition of carragenin edema, 100 mg/kg i.p., borate buffer pH 7, 2 h) of 1%, an inhibition in vivo at 200 mg/kg (carragenin edema; 2 h, pH 7, read-out: % inhibition of carragenin edema, 200 mg/kg i.p., borate buffer pH 7, 2 h) of 4% and an inhibition in vivo at 35 mg/kg (carragenin edema; 3 h, pH 7, read-out: % inhibition of carragenin edema, 35 mg/kg i.p., borate buffer pH 7, 3 h) of 9%. The inhibition in vivo at 40 mg/kg (carragenin edema; 3 h, pH 7, read-out: % inhibition of carragenin edema, 40 mg/kg i.p., borate buffer pH 7, 3 h) was 2%, the inhibition in vivo at 75 mg/kg (carragenin edema; 3 h, pH 7, read-out: % inhibition of carragenin edema, 75 mg/kg i.p., borate buffer pH 7, 3 h) was 17% and the inhibition in vivo at 100 mg/kg (carragenin edema; 3 h, pH 7, read-out: % inhibition of carragenin edema, 100 mg/kg i.p., borate buffer pH 7, 3 h) was 2%. For the same molecule, the inhibition in vivo at 200 mg/kg (carragenin edema; 3 h, pH 7, read-out: % inhibition of carragenin edema, 200 mg/kg i.p., borate buffer pH 7, 3 h) was 0%, the inhibition in vivo at 35 mg/kg (carragenin edema; 4 h, pH 7, read-out: % inhibition of carragenin edema, 35 mg/kg i.p., borate buffer pH 7, 4 h) was 7% and the inhibition in vivo at 40 mg/kg (carragenin edema; 4 h, pH 7, read-out: % inhibition of carragenin edema, 40 mg/kg i.p., borate buffer pH 7, 4 h) was 5%. The inhibition in vivo at 75 mg/kg (carragenin edema; 4 h, pH 7, read-out: % inhibition of carragenin edema, 75 mg/kg i.p., borate buffer pH 7, 4 h) was 0%, the inhibition in vivo at 100 mg/kg (carragenin edema; 4 h, pH 7, read-out: % inhibition of carragenin edema, 100 mg/kg i.p., borate buffer pH 7, 4 h) was 10% and the inhibition in vivo at 200 mg/kg (carragenin edema; 4 h, pH 7, read-out: % inhibition of carragenin edema, 200 mg/kg i.p., borate buffer pH 7, 4 h) was 8%. It also gave an inhibition in vivo at 35 mg/kg (carragenin edema; 5 h, pH 7, read-out: % inhibition of carragenin edema, 35 mg/kg i.p., borate buffer pH 7, 5 h) of 10%, an inhibition in vivo at 40 mg/kg (carragenin edema; 5 h, pH 7, read-out: % inhibition of carragenin edema, 40 mg/kg i.p., borate buffer pH 7, 5 h) of 2% and an inhibition in vivo at 75 mg/kg (carragenin edema; 5 h, pH 7, read-out: % inhibition of carragenin edema, 75 mg/kg i.p., borate buffer pH 7, 5 h) of 7%. For the same molecule, the inhibition in vivo at 100 mg/kg (carragenin edema; 5 h, pH 7, read-out: % inhibition of carragenin edema, 100 mg/kg i.p., borate buffer pH 7, 5 h) was 15%, the inhibition in vivo at 200 mg/kg (carragenin edema; 5 h, pH 7, read-out: % inhibition of carragenin edema, 200 mg/kg i.p., borate buffer pH 7, 5 h) was 9% and the inhibition in vivo at 35 mg/kg (carragenin edema; 6 h, pH 7, read-out: % inhibition of carragenin edema, 35 mg/kg i.p., borate buffer pH 7, 6 h) was 14%. The inhibition in vivo at 40 mg/kg (carragenin edema; 6 h, pH 7, read-out: % inhibition of carragenin edema, 40 mg/kg i.p., borate buffer pH 7, 6 h) was 0%, the inhibition in vivo at 75 mg/kg (carragenin edema; 6 h, pH 7, read-out: % inhibition of carragenin edema, 75 mg/kg i.p., borate buffer pH 7, 6 h) was 13% and the inhibition in vivo at 100 mg/kg (carragenin edema; 6 h, pH 7, read-out: % inhibition of carragenin edema, 100 mg/kg i.p., borate buffer pH 7, 6 h) was 5%. It also gave an inhibition in vivo at 200 mg/kg (carragenin edema; 6 h, pH 7, read-out: % inhibition of carragenin edema, 200 mg/kg i.p., borate buffer pH 7, 6 h) of 1%, an inhibition in vivo at 35 mg/kg (carragenin edema; read-out: % inhibition of carragenin edema, 35 mg/kg i.p., borate buffer pH 7, 1/2 h) of 26% and an inhibition in vivo at 40 mg/kg (carragenin edema; read-out: % inhibition of carragenin edema, 40 mg/kg i.p., borate buffer pH 7, 1/2 h) of 28%. For the same molecule, the inhibition in vivo at 75 mg/kg (carragenin edema; read-out: % inhibition of carragenin edema, 75 mg/kg i.p., borate buffer pH 7, 1/2 h) was 29%, the inhibition in vivo at 100 mg/kg (carragenin edema; read-out: % inhibition of carragenin edema, 100 mg/kg i.p., borate buffer pH 7, 1/2 h) was 23% and the inhibition in vivo at 200 mg/kg (carragenin edema; read-out: % inhibition of carragenin edema, 200 mg/kg i.p., borate buffer pH 7, 1/2 h) was 14%. The “percentage reduction of capillary permeability” value (shortened to “percentage reduction”) (capillary permeability; 50 mg/kg i.p.) was 21%, the “percentage reduction” value (capillary permeability; 100 mg/kg i.p.) was 20% and the “percentage reduction” value (capillary permeability; 200 mg/kg i.p.) was 23%.
